In US20120015998A1 (priority 2010, published 2012):

Key:
[1] = system: actinic keratoses lesions; assay: Phototherapy of actinic keratoses lesions with topical photosensitizer prodrug and red light emitting OLED (Device A); type: in vivo, person; conditions: 20% topical solution on individual lesions; illuminated about 14-18 hours after application with red OLED Device A
From the text: 5-Aminolevulinic acid HCl (20% topical solution, available as LEVULAN® KERASTICK® from DUSA® Pharmaceuticals) is topically applied to individual lesions on a person suffering from actinic keratoses.
Methyl aminolevulinate (16.8% topical cream, available as METVIXIA® Cream from GALERMA LABORATORIES, Fort Worth, Tex., USA) is topically applied to individual lesions on a person suffering from actinic keratoses.

pathological myopia = assay: Verteporphin phototherapy of pathological myopia, retina illuminated with red OLED (Device A); conditions: about 6 mg/m^2 i.v. over about 10 minutes; retina illuminated about 15 minutes after start of infusion with red OLED Device A
[2] = system: presumed ocular histoplasmosis; design: species or system person; conditions: in vivo, iv
[3] = system: age-related macular degeneration; assay: Verteporphin phototherapy of age-related macular degeneration, retina illuminated with red OLED (Device A); conditions: about 6 mg/m^2 i.v. over about 10 minutes; retina illuminated about 15 minutes after start of infusion with red OLED Device A

Row | Compound | number or severity of the lesions after the treatment [1] | patient's vision after treatment (pathological myopia) | patient's vision after treatment [2] | patient's vision after treatment [3]
1 | Cl.NCC(=O)CCC(=O)O [5-Aminolevulinic acid HCl] | anticipated to be reduced | – | – | –
2 | C=Cc1c(C)c2cc3nc(cc4[nH]c(cc5nc(cc1[nH]2)C(C)=C5CCC(=O)O)c(CCC(=O)OC)c4C)[C@@]1(C)C3=CC=C(C(=O)OC)[C@H]1C(=O)OC [Verteporphin] | – | anticipated to be stabilized | anticipated to be stabilized | anticipated to be stabilized
